“Also recorded” adds a separate entry of the source.
Columns and labels:
small GTPase Ras = test: Quantification of Ras activation (GST-Raf-1 Ras binding domain); assay type: cell-based, rat; details: D-PDMP 50 μM pretreatment; LPS/IFN 5 mins
Experimental: Quantification of Ras Activation. After stimulation, primary astrocytes in 6 well plates were washed with PBS and lysed in membrane lysis buffer (MLB; 0.5 ml of 25 mM HEPES, pH7.5, 150 mM NaCl, 1% Igepal CA-630, 0.25% sodium deoxycholate, 10% glycerol, 10 mM MgCl2, 1 mM EDTA, 25 mM NaF, 1 mM of sodium orthovanadate, and EDTA free Complete™ protease inhibitor cocktail). After centrifugation (5,000×g) at 4° C. for 5 min, supernatant was used for Ras activation assay. One hundred μg of supernatant was used for binding with agarose conjugated Ras-binding domain (RBD) of Raf-1 which was expressed in BL21 (Invitrogen) Escherichia coli strain transformed by pGEX-2T-GST-RBD in the presence of 0.1 mM of IPTG as described previously (Herrmann et al., 1995). The binding reaction was performed at 4° C. for 30 min in MLB. Following washing with MLB three times, Ras-RBD complex were denatured by adding of 2×SDS sample buffer. Ras protein was identified by western immunoblot analysis with Ras antibodies from Upstate Biotechnology.

iNOS = test: LPS/IFN-induced NO production and iNOS expression in C6 glioma cells; assay type: cell-based, rat; details: D-PDMP 10, 25, 50 μM, 0.5 hr pretreatment
Experimental: C6 rat glioma cells obtained from ATCC were maintained in Dulbecco's modified Eagle's medium (DMEM) (GIBCO, CA) containing 10% fetal bovine serum (FBS) (GIBCO) and 10 ? g/ml gentamicin. All the cultured cells were maintained at 37° C. in 5% CO2/95% air. At 80% confluency, the cells were incubated with serum free DMEM medium for 24 h prior to the incubation with LPS/IFN ? and other chemicals. Assay for NO production. Cells were cultured in 12-well plastic tissue culture plates. After the appropriate treatment, production of NO was determined by an assay of the culture supernatant for nitrite (Green et al., 1982). Briefly, 100 μl of culture supernatant was allowed to react with 100 μl of Griess reagent. The optical density of the assay samples was measured spectrophotometrically at 570 nm. Nitrite concentrations were calculated from a standard curve derived from the reaction of NaNO2 in fresh media. Western Blot Analysis. […] The protein concentration of samples was determined with the detergent compatible protein assay reagent (Bio-Rad Laboratories, CA) using bovine serum albumin (BSA) as the standard. Sample was boiled for 3 min with 0.1 volumes of 10% O-mercaptoethanol and 0.5% bromophenol blue mix. Fifty μg of total cellular protein was resolved by electrophoresis in 8 or 12% polyacrylamide gels, electro-transferred to polyvinylidene difluoride (PVDF) filter and blocked with Tween 20 containing Tris-buffered saline [TBST; 10 mM Trizma base (pH 7.4), 1% Tween 20, and 150 mM NaCl] with 5% skim milk. After incubation with antiserum against iNOS (BD PharMingen, CA), or hRas (Upstate Biotechnology, CA), or phospho-specific MAPK (p42/44) (Signal Transduction), in PVDF buffer for 2 h at room temperature, the filters were washed 3 times with TBST buffer and then incubated with horseradish peroxidase conjugated anti-rabbit or mouse IgG for 1 h. The membranes were autoradiographed by using ECL-plus (Amersham Pharmacia Biotech) after washing with TBST buffer. RT-PCR amplification. […] PCR amplification was conducted in 25 ? l of reaction mixture with 1.0 ? l of cDNA, […] and under the manufacturer's Taq polymerase conditions (Takara, […] Shuzo Co. Ltd, Japan). The sequence of primers used for PCR amplification are as follows; iNOS, (Forward-[NT], Reverse-[NT]), GalT-2 (Forward-[NT], Reverse-[NT]), GAPDH (Forward-[NT], Reverse-[NT]).

SCI rats = assay type: in vivo
ERK1/2 = ERK1/2 phosphorylation by immunoblot after LPS/IFN; assay type: cell-based, rat; details: D-PDMP pretreatment; LPS/IFN 20 minutes
Experimental: Western Blot Analysis. For iNOS protein, the cells were washed with cold Tris buffered saline (TBS; 20 mM Trizma base, and 137 mM NaCl, pH 7.5), lysed in 1×SDS sample loading buffer (62.5 mM Trizma base, 2% w/v SDS, 10% glycerol), following sonication and centrifugation at 1,5000×g for 5 min, the supernatant was used for the iNOS western immunoblot assay. The protein concentration of samples was determined with the detergent compatible protein assay reagent (Bio-Rad Laboratories, CA) using bovine serum albumin (BSA) as the standard. Sample was boiled for 3 min with 0.1 volumes of 10% O-mercaptoethanol and 0.5% bromophenol blue mix. Fifty μg of total cellular protein was resolved by electrophoresis in 8 or 12% polyacrylamide gels, electro-transferred to polyvinylidene difluoride (PVDF) filter and blocked with Tween 20 containing Tris-buffered saline [TBST; 10 mM Trizma base (pH 7.4), 1% Tween 20, and 150 mM NaCl] with 5% skim milk. After incubation with antiserum against iNOS (BD PharMingen, CA), or hRas (Upstate Biotechnology, CA), or phospho-specific MAPK (p42/44) (Signal Transduction), in PVDF buffer for 2 h at room temperature, the filters were washed 3 times with TBST buffer and then incubated with horseradish peroxidase conjugated anti-rabbit or mouse IgG for 1 h. The membranes were autoradiographed by using ECL-plus (Amersham Pharmacia Biotech) after washing with TBST buffer.

[1] = D-PDMP 20 mg/kg, 24 hrs following injury

Structure (SMILES): CCCCCCCCCC(=O)NC(CN1CCOCC1)C(O)c1ccccc1.Cl [D-PDMP, D-threo-1-Phenyl-2-decanoylamino-3-morpholino-1-propanol HCl]
- LPS/IFN mediated activation of Ras (small GTPase Ras): reduced
- LPS/IFN induced NO production (iNOS): inhibited
- iNOS protein and mRNA levels (iNOS): inhibited
- iNOS mRNA and protein expression at the site of injury (SCI rats; D-PDMP 20 mg/Kg i.p. within 10 minutes following SCI, 12 hrs): markedly suppresses; also recorded: significantly lower
- GFAP expression (immunofluorescence, lesion epicenter) (SCI rats; [1]): significantly reduced
- iNOS expression (immunofluorescence, lesion epicenter) (SCI rats; [1]): significantly reduced
- SCI induced white matter vacuolization and tissue necrosis (H&E) (SCI rats; D-PDMP treated SCI rats): inhibited
- apoptosis of neurons and other cells (TUNEL/NeuN) (SCI rats; D-PDMP treated SCI rats): protection against apoptosis
- demyelinization (LFB staining) (SCI rats; D-PDMP treated SCI rats): attenuated
- adverse effect on neuronal survival (SCI rats; D-PDMP treated sham operated animals): no adverse effect
- LPS/IFN induced phosphorylation of ERK 1/2 (ERK1/2): inhibited

Source: patent US20070270350A1, “Methods and Compositions for the Prevention and Treatment of Inflammatory Diseases or Conditions” (MUSC FOUNDATION FOR RESEARCH DEVELOPMENT, priority 2003, published 2007)
